According to patent publication US20240294570A1, “ENZYMATICALLY FORMING INTRANUCLEAR PEPTIDE ASSEMBLIES FOR SELECTIVELY KILLING INDUCED PLURIPOTENT STEM CELLS” (BRANDEIS UNIVERSITY, priority 2021, published 2024):
One block for each compound: values may come before it. Non-standard residues stand in square brackets, D forms with d. Residues, ends and D or L forms follow the SMILES beside them. No end group written: not given here. *: point of attachment. pY = N[C@@H](Cc1ccc(OP(=O)(O)O)cc1)C(=O)O; NBD = O=[N+]([O-])c1ccc(*)c2nonc12; βAla = NCCC(=O)O

Tests used:
[1] = Enzymatic self-assembly in vitro, nanostructures by TEM; assay type: physicochemical; settings: for diameters of nanofibers: after dephosphorylation at 400 μM by ALP (0.5 U/mL)
Description: TEM Sample Preparation: After placing 5 μL samples on 400 mesh copper grids coated with continuous thick carbon film (˜35 nm) which is glowed discharged, we washed the grid with ddH2O and UA (uranyl acetate). The sample loaded grid was stained with the UA. The residual UA was removed by filter paper and then dried in air. TEM images were obtained with Morgagni 268 transmission electron microscope.
After obtaining all the precursors, their behaviors for EISA were evaluated in vitro using transmission electron microscopes (TEM) to examine the nanostructures formed before and after the ALP catalyzed dephosphorylation of precursors 5, 7, and 9. […] The critical micelle concentration (CMC) of 5 is 86.1 μM. […] The CMC of 6 is 8.1 μM. Unlike the case of 5, dephosphorylation of 7 or 9 at 400 μM by ALP (0.5 U/mL) produces nanofibers with the diameters of 6±2 nm or 9±2 nm, whose CMC is 87.4 μM or 25.8 μM, respectively.
A key requirement for selectively eliminating iPSCs by EISA is that the L-peptide nanoribbons only form on and in iPSCs, which overexpress ALP, but not on and in the differentiated cells that express normal level of ALP. That is, L-peptide nanoribbons should only rapidly form at high level of ALP, but not at normal level of ALP. […] Thus, after assessing the level of ALP expression in iPSCs, it should be possible to optimizing the initial concentration of a peptide and the time of dephosphorylation, to promote EISA that selectively targets iPSCs.

iPSCs [2] = test: CLSM imaging of peptide assemblies in iPSCs; assay type: cell-based, human; settings: 400 μM, 2 hours
Description: Confocal Laser Scanning Microscopy (CLSM) Imaging: For live cell imaging, cells in exponential growth phase were seeded in a confocal dish (3.5 cm) at 1.0×10^5 cells per dish and then incubated in incubator for 24 h. We removed culture medium, and added fresh medium containing precursors for different time points. After removing the medium and washing the cells with live cell imaging solution (2 mL×2), the cells were used for CLSM imaging. For time-dependent live cell imaging, cells in exponential growth phase were seeded in a confocal dish (3.5 cm) at 1.0×10^5 cells per dish and then incubated in incubator for 24 h. After removing culture medium, we treated the cells with 1 mL of Hoechst 33342 (1 μg mL^−1) for 10 minutes. After being washed with culture medium (2 mL×2), the cells were incubated with fresh medium containing precursor 5 in a Tokai Hit stage top incubator (STXF-WSKMX-SET) to be used for CLSM imaging. All the CLSM images were obtained using Zeiss LSM 880 confocal microscopy at the lens of 63× with oil. The lasers used are 405 nm and 488 nm.
Because the fluorescence of NBD increases drastically from unassembled to assembled state, confocal laser scanning microscopy (CLSM) was suitable to reveal the cellular location of the peptide assemblies formed after dephosphorylation catalyzed by ALP. […] The blackness in nuclei overlaps well with the strong fluorescence. […] The results confirms that the nucleus-targeting mainly originates from the ALP catalyzed dephosphorylation.
To trace the dynamics of the formation and distribution of 5 inside iPSC cells, time-lapse CLSM was also used to image the changes of the fluorescence in the iPSCs incubated by 5 (400 μM). Using one cell as a representative case, after 6 minutes incubation fluorescent puncta appear on the membrane, likely originating from the aggregates of assemblies of 5 and those of 6 generated by the dephosphorylation catalyzed by ALP. […] After 24 minutes incubation, fluorescence starts to grow in the cytoplasm. Considering the LLLLY motif in SEQ ID NO: 2 constitutes the transmembrane domains of 18 human membrane proteins, it is possible that the affinity of 5 or 6 to membrane allows the assemblies of the mixture of 5 and 6 to interact with cellular membranes, which then facilitates nuclear localization. At about 28 minutes of incubation, fluorescence appears in the nucleus. Moreover, the nuclei shrink after the assemblies emerge in the nuclei. In addition, the nuclei also show nuclear blebbing (Stephens et al., “Chromatin Histone Modifications and Rigidity Affect Nuclear Morphology Independent of Lamins,” Mol. Biol. Cell 29(2):220-233 (2018), which is hereby incorporated by reference in its entirety). The shrinkage of nuclei and nuclear blebbing likely associate with iPSC death. To further examine the dynamics of EISA-formed peptide assemblies in iPSCs over different time, the increase of fluorescence in two cells over 2 hours was monitored; their nuclei, A and B, are shown in FIG. 10A. […] The mean fluorescent intensity in Nucleus A starts to increase at 28 minutes and levels off after 110 minutes. For Nucleus B, the mean fluorescent intensity keeps increasing from 38 minutes. The increases of the fluorescence in the nuclei and nucleoli are synchronous. […] The assemblies inside the nuclei or near nuclear membrane induce nuclear blebbing and shrinkage of nuclei, which likely contributes to the cell death.

ALP = test: Dephosphorylation rate measurement (LC-MS); settings: for conversion ratio to dephosphorylated peptide / half-life at 100 μM / half-life at 200 μM: 0.5 U/mL ALP; for conversion ratio to dephosphorylated peptide: after 5 h of incubation; for half-life at 400 μM / half-life at 100 μM / half-life at 200 μM: alkaline phosphatase (ALP) in PBS; for half-life at 100 μM / half-life at 200 μM: half-life of dephosphorylation
Description: The reaction mixtures were analyzed with LC-MS.
Thus, the conversion of the phosphopentapeptides to their corresponding peptides was examined over time.

iPSCs [3] = test: Cell viability of iPSCs (trypan blue); assay type: cell-based, human; settings: 400 μM, 2 h
Description: Cell Culture: Human induced pluripotent stem cell line A21 was generated from human normal dermal fibroblasts by using the StemRNA™-NM Reprogramming kit (Stemgent, Cat #00-0076). hiPSCs were routinely cultured and passaged on 6-well plates coated with 0.25 μg/cm^2 iMatrix-511 (Recombinant Laminin-511) (ReproCell) with NutriStem XF/FFTM medium (Biological Industries). HS-5 cell line and HEK293 cell line were purchased from American Type Culture Collection (ATCC, USA). HS-5 cells were cultured in Dulbecco's Modified Eagle Medium (DMEM) supplemented with 10% fetal bovine serum (FBS), 100 U/mL penicillin and 100 μg/mL streptomycin. HEK293 cells were cultured in Minimal Essential Medium (MEM) supplemented with 10% fetal bovine serum (FBS), 100 U/mL penicillin and 100 μg/mL streptomycin. All cells were maintained at 37° C. in a humidified atmosphere of 5% CO2.
Cell Viability of iPSC's: iPSCs were plated in 6-well plates and incubated for 24 to 48 hours, then media were replaced with fresh one (2 ml) supplemented with PBS (control) 5 (200 μM, 300 μM, and 400 μM), 7 (400 μM) or 9 (400 μM), and incubated for 2 hours. Media were removed and cells were rinsed with PBS once, fresh normal cultural media were added and incubated for 30 min. All cells were collected and stained with trypan blue, live cells were counted using Cellometer Auto 2000 (Nexcelom Bioscience). Data were obtained by from three independent wells (n=3).

[4] = Critical micelle concentration (CMC) measurement with pyrene probe; assay type: physicochemical; settings: for CMC of the nanofiber-forming product of dephosphorylation: product after dephosphorylation at 400 μM by ALP (0.5 U/mL)
Description: Critical Micelle Concentration ((MC) Measurement: The CMCs were determined using pyrene as the fluorescent probe. Different concentrations of compounds were prepared in pyrene-saturate solutions. The fluorescence spectra of pyrene solutions with different concentration compounds were obtained. The intensity ratio of 378 nm/393 nm (I378/I393) was determined by a Synergy H1 hybrid multi-mode microplate reader. Plot I378/I393 against the concentrations of compounds. The concentration at the turning point is the CMC.

[5] = Degradation in HS-5 cell lysate (LC-MS)

Compound: CC(C)C[C@H](NC(=O)[C@H](CC(C)C)NC(=O)[C@H](Cc1ccc(OP(=O)(O)O)cc1)NC(=O)[C@H](CC(C)C)NC(=O)[C@H](CC(C)C)NC(=O)CCNc1ccc([N+](=O)[O-])c2nonc12)C(=O)O [compound 7, NBD-βA-LLpYLL] ({NBD-βAla}-LL[pY]LL-OH)
diameters of nanofibers [1]: 6±2 nm
NBD fluorescence in iPSCs (location of peptide assemblies) (iPSCs [2]): no fluorescence inside the cells
conversion ratio to dephosphorylated peptide (ALP): 61.5%
half-life at 400 μM (ALP): 2.09 h
half-life at 100 μM (ALP): 2.12 h
half-life at 200 μM (ALP): 1.87 h
cytotoxicity against the iPSCs (iPSCs [3]): hardly exhibit cytotoxicity
critical micelle concentration (CMC) [4]: 159.9 UM
CMC of the nanofiber-forming product of dephosphorylation [4]: 87.4 µM

6 remaining in HS-5 lysate ([5]; from 200 μM of 5, after 2 h of incubation): about 20%
6 remaining in HS-5 lysate ([5]; from 200 μM of 5, after 4 hours incubation): 6.01%
critical micelle concentration (CMC) [4]: 8.1 µM
Compound: CC(C)C[C@H](NC(=O)CCNc1ccc([N+](=O)[O-])c2nonc12)C(=O)N[C@@H](CC(C)C)C(=O)N[C@@H](CC(C)C)C(=O)N[C@@H](CC(C)C)C(=O)N[C@@H](Cc1ccc(O)cc1)C(=O)O [compound 6, NBD-βA-LLLLY] ({NBD-βAla}-LLLLY-OH)

Compound: CC(C)C[C@@H](NC(=O)CCNc1ccc([N+](=O)[O-])c2nonc12)C(=O)N[C@H](CC(C)C)C(=O)N[C@H](CC(C)C)C(=O)N[C@H](CC(C)C)C(=O)N[C@@H](Cc1ccc(OP(=O)(O)O)cc1)C(=O)O [compound 9, NBD-βA-llllpY] ({NBD-βAla}-[dL][dL][dL][dL][pY]-OH)
diameters of nanofibers [1]: 9±2 nm
NBD fluorescence in iPSCs (location of peptide assemblies) (iPSCs [2]): most of the cells exhibit no fluorescence inside the cells
conversion ratio to dephosphorylated peptide (ALP): 93.3%
half-life at 400 μM (ALP): 0.45 h
half-life at 100 μM (ALP): 0.41 h
half-life at 200 μM (ALP): 0.36 h
cytotoxicity against the iPSCs (iPSCs [3]): hardly exhibit cytotoxicity
critical micelle concentration (CMC) [4]: 146.8 µM
CMC of the nanofiber-forming product of dephosphorylation [4]: 25.8 µM

Compound: 4: de-phosphorylated form of 3: NBD-bAla-Leu-Leu-Leu-Tyr (SEQ ID NO: 1) ({NBD}-[βAla]LLLY) [compound 4]
self-assembling ability ([1]; formed from 3 upon dephosphorylation by ALP): limited self-assembling ability
